Assay results as given in ChEMBL document CHEMBL1129907, “The SAR of UK-78,282: A novel blocker of human T cell Kv1.3 potassium channels” (Bioorg Med Chem Lett, 1997).

How the values were obtained:
[1] = tested on: T-cell line; experiment: In vitro inhibitory potency against human T-cells Rb efflux; format: functional, cell-based
[2] = tested on: T-cell line; experiment: In vitro inhibition of Rb efflux in human T-cells; 1-10; format: functional, cell-based
[3] = biological target: Potassium voltage-gated channel subfamily A member 3 (Homo sapiens, UniProt P22001); experiment: In vitro inhibition of human T-cells voltage-gated potassium channel subunit Kv1.3; format: cell-based, T-cell
Potassium voltage-gated channel subfamily A member 3, sequence (P22001 whole entry): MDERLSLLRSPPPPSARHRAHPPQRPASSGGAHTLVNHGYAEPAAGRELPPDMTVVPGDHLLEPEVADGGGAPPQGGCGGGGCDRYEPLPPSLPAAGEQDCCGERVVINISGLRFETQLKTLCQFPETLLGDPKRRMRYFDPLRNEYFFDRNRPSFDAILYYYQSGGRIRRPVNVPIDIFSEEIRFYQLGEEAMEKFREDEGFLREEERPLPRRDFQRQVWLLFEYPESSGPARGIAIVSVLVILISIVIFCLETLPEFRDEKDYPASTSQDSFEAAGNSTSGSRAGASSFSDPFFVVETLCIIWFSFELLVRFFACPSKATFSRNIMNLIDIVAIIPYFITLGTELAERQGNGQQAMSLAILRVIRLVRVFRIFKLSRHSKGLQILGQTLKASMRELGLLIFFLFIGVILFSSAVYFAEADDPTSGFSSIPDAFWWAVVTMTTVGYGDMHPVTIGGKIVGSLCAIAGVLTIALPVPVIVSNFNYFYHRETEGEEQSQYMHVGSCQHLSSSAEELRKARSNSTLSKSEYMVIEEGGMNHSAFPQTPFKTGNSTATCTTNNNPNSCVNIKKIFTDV

Compound | IC50 [1] | further results
CCCCN1CCC(COC(c2ccccc2)c2ccccc2)CC1 | 14000 nM | 
COc1ccc(/C=C/CN2CCC(COC(c3ccccc3)c3ccccc3)CC2)cc1 | 4300 nM | 
CC[N+](CC)(CC)CC [TETRYLAMMONIUM] |  | IC50 [2]: 1000 nM
CCCCCCC[N+](CC)(CC)CCCCc1ccc(Cl)cc1 [CLOFILIUM] |  | IC50 [2]: 1000 nM
COc1ccc(CCCN2CCC(COCc3ccccn3)CC2)cc1 | 5900 nM | 
CN(CCOc1ccc(NS(C)(=O)=O)cc1)CCc1ccc(NS(C)(=O)=O)cc1 [DOFETILIDE] |  | IC50 [2]: 1000 nM
CCCN1CCC(COC(c2ccccc2)c2ccccc2)CC1 | 17800 nM | 
COc1ccc(CCCN2CCC(CO)CC2)cc1 | > 20000 nM | 
CN1CCC(COC(c2ccccc2)c2ccccc2)CC1 | > 20000 nM | 
c1ccc(C(OCC2CCN(CC3CCc4ccccc4C3)CC2)c2ccccc2)cc1 (stereo not given) | 5600 nM | 
CCN1CCC(COC(c2ccccc2)c2ccccc2)CC1 | > 20000 nM | 
CCCCCN1CCC(COC(c2ccccc2)c2ccccc2)CC1 | 10800 nM | 
COc1ccc(CC2(CN3CCC(COC(c4ccccc4)c4ccccc4)CC3)CCCCC2)cc1 | 3400 nM | 
CC(C)NCC(O)c1ccc(NS(C)(=O)=O)cc1 (stereo not given) [SOTALOL] |  | IC50 [2]: 1000 nM
COc1ccc(CCCN2CCC(COCC3CCCCC3)CC2)cc1 | 3000 nM | 
COc1ccc(Cl)cc1C(=O)NCCc1ccc(S(=O)(=O)NC(=O)NC2CCCCC2)cc1 [GLYBURIDE] |  | IC50 [2]: 1000 nM
CCCCCCN1CCC(COC(c2ccccc2)c2ccccc2)CC1 | 5500 nM | 
COc1ccc(CCC[n+]2ccc(COC(c3ccccc3)c3ccccc3)cc2)cc1 | > 20000 nM | 
C(#Cc1ccccc1)CN1CCC(COC(c2ccccc2)c2ccccc2)CC1 | > 20000 nM | 
COc1ccc(CCCN2CCC(COC(c3ccc(Br)cc3)c3ccc(Br)cc3)CC2)cc1 | 3200 nM | 

Further compounds by falling IC50 [1], results first:

IC50 [1] | Compound | further results
2900 nM | COc1ccc(CCN2CCC(COC(c3ccccc3)c3ccccc3)CC2)cc1 | 
2800 nM | COc1ccc(CCCN2CCC(CNC(c3ccccc3)c3ccccc3)CC2)cc1 | 
2700 nM | COc1ccc(CCCN2CCN(CCC(c3ccccc3)c3ccccc3)CC2)cc1 | 
2600 nM | CCCCCCCCCCN1CCC(COC(c2ccccc2)c2ccccc2)CC1 | 
2400 nM | COc1ccccc1CCCN1CCC(COC(c2ccccc2)c2ccccc2)CC1 | 
2200 nM | Clc1ccc(CCCN2CCC(COC(c3ccccc3)c3ccccc3)CC2)cc1Cl | 
2100 nM | COc1ccc(CCCN2CCC(COCc3ccccc3)CC2)cc1 | 
1500 nM | COc1ccc(CCCN2CCC(C(O)CC(c3ccccc3)c3ccccc3)CC2)cc1 (stereo not given) | 
1500 nM | COc1cccc(CCCN2CCC(COC(c3ccccc3)c3ccccc3)CC2)c1 | 
1100 nM | COc1ccc(CCCN2CCC(COC(c3ccc(Cl)cc3)c3ccc(Cl)cc3)CC2)cc1 | 
800 nM | Clc1ccccc1CCCN1CCC(COC(c2ccccc2)c2ccccc2)CC1 | 
700 nM | c1ccc(CCCN2CCC(COC(c3ccccc3)c3ccccc3)CC2)cc1 | 
700 nM | CCCCCCCCCN1CCC(COC(c2ccccc2)c2ccccc2)CC1 | 
700 nM | CCCCCCCCN1CCC(COC(c2ccccc2)c2ccccc2)CC1 | 
500 nM | CCCCCCCN1CCC(COC(c2ccccc2)c2ccccc2)CC1 | 
500 nM | COc1ccc(CCCN2CCC(COCc3ccc(Cl)cc3)CC2)cc1 | 
500 nM | Clc1ccc(CCCN2CCC(COC(c3ccccc3)c3ccccc3)CC2)cc1 | 
400 nM | COc1ccc(CCCN2CCC(=CCC(c3ccccc3)c3ccccc3)CC2)cc1 | 
400 nM | COc1ccc(CCCN2C3CCC2CC(COC(c2ccccc2)c2ccccc2)C3)cc1 (stereo not given) | 
400 nM | COc1ccc(CCCN2CCC(COC(c3ccccc3)c3ccccc3)CC2)cc1 | IC50 [3]: 200 nM
200 nM | COc1ccc(CCCN2CCC(COCc3ccc(Cl)c(Cl)c3)CC2)cc1 | 
200 nM | Cc1ccc(CCCN2CCC(COC(c3ccccc3)c3ccccc3)CC2)cc1 | 
200 nM | COc1ccc(CCCN2CCC(CCC(c3ccccc3)c3ccccc3)CC2)cc1 | 
200 nM | COc1ccc(CCCN2CCC(COC(c3ccccc3)c3ccc(Cl)cc3)CC2)cc1 (stereo not given) | 
